Experimental data published in patent US6992072B2, “Combating side-effects” (Pharma Nord ApS, priority 2001, dated 2006).

Legend:
Assay type in all cases: cell-based, human
[1] = test system: HepG2 cell line; assay: Intracellular lipids of HepG2 cells, Oil-Red-O staining
Protocol: Cell culture. The HepG2 cell line, a human hepatoma cell line, is taken from the American Type Culture Collection (ATCC No. HB-8065). It is cultured at 37° C. in a 5% CO2 atmosphere. The culture medium is Dulbecco's Modified Eagle Medium (DMEM-containing 4.5 g/l glucose, 110 mg/l pyruvate, 4 mg/l nicotinamide, 4 mg/l pyridoxal hydrochloride, 4 mg/l thiamine and 0.4 riboflavin), supplemented with 10% fetal bovine serum (50 ml FCS, Mycoplex PAA Laboratories, Linz). On day 1, 2.7×10^6 cells are placed in 75 ml culture flasks (Falcon, Becton Dickinson, USA). On days 5, 10, 15, 20 and 25, the cells are trypsinized and counted; 2.7×10^6 cells are again spread out. The medium is changed on each day of trypsinization and on the third day after replating. Materials: Riboflavin (vitamin B2), thiamine (vitamin B1), ascorbic acid (vitamin C), uridine and ddC are purchased from Sigma (USA). […] A vitamin cocktail consisting of 7.125 mg/l riboflavin, 7.125 mg/l thiamine and 142.5 mg/l vitamin C is used. These pharmacological concentrations exceed the daily requirement by a factor of about one hundred, and meet the safe upper limits according to the recommendations of the European Union for these micro-nutrients. Determining the intracellular lipids: Intracellular lipid droplets' are stained by means of Oil-Red-O (Sigma, USA). […]

[2] = test system: mitochondrial DNA (mtDNA); assay: Quantification of mitochondrial DNA by Southern Blot (M/N ratio) in HepG2 cells; details: ddC 177 nM; for Content of mitochondrial DNA, M/N-ratio in % of the control: control = HepG2-cells without ddC and without uridine
Protocol: Cell culture. The HepG2 cell line, a human hepatoma cell line, is taken from the American Type Culture Collection (ATCC No. HB-8065). It is cultured at 37° C. in a 5% CO2 atmosphere. The culture medium is Dulbecco's Modified Eagle Medium (DMEM-containing 4.5 g/l glucose, 110 mg/l pyruvate, 4 mg/l nicotinamide, 4 mg/l pyridoxal hydrochloride, 4 mg/l thiamine and 0.4 riboflavin), supplemented with 10% fetal bovine serum (50 ml FCS, Mycoplex PAA Laboratories, Linz). On day 1, 2.7×10^6 cells are placed in 75 ml culture flasks (Falcon, Becton Dickinson, USA). On days 5, 10, 15, 20 and 25, the cells are trypsinized and counted; 2.7×10^6 cells are again spread out. The medium is changed on each day of trypsinization and on the third day after replating. Materials: Riboflavin (vitamin B2), thiamine (vitamin B1), ascorbic acid (vitamin C), uridine and ddC are purchased from Sigma (USA). The concentrations of uridine are given in the following tables; ddC is used in a concentration of 177 nM, which corresponds to the steady-state plasma levels of patients under HAART. A vitamin cocktail consisting of 7.125 mg/l riboflavin, 7.125 mg/l thiamine and 142.5 mg/l vitamin C is used. These pharmacological concentrations exceed the daily requirement by a factor of about one hundred, and meet the safe upper limits according to the recommendations of the European Union for these micro-nutrients. Quantification of mitochondrial DNA (mtDNA) by means of Southern Blot: The content of mtDNA is determined by a well-known Southern-Blot technique (C. T. Moraes et al., “Quantitative Defects of Mitochondrial DNA”, in: S. DiMauro and D. C. Wallace, “Mitochondrial DNA in Human Pathology”, Raven Press, New York 1993, Chapter 8, pages 97–108). Genomic DNA is extracted from the fatty tissue and cut with the restriction endonuclease Pvull. Five μg of the cut material are separated electrophoretically on a 0.8% agarose gel and transferred to a nylon membrane. The mtDNA is tested with a 12.9 kBp mtDNA fragment (which comprises the nucleotide positions 3470 and 16379 of human mtDNA (S. Anderson et al., Nature 9, 457–65 (1981), and which is marked by means stochastically binding primers with digoxigenin). In order to have an internal standard, digoxigen labeled nuclear DNA (nDNA), which hybridizes to the copy-number 18S-ribosomal DNA gene, serves as a second probe. The signals for mtDNA and nDNA are visualized, according to the recommendations of the manufacturer (Boehringer Mannheim, Germany), with a monoclonal antibody against digoxigenin, which is conjugated with alkaline phosphatase. The signal intensities are quantified by computer by means of standard software. The mtDNA content is expressed as the mtDNA/nDNA (M/N) ratio.

[3] = test system: HepG2 cell line; assay: L-lactate in the culture medium of HepG2 cells, enzymatic test; details: ddC 177 nM; for Lactate values in the medium in percent of the control: control without ddC and without uridine, Day 0 = 100%
Protocol: (§1) Cell culture. The HepG2 cell line, a human hepatoma cell line, is taken from the American Type Culture Collection (ATCC No. HB-8065). It is cultured at 37° C. in a 5% CO2 atmosphere. The culture medium is Dulbecco's Modified Eagle Medium (DMEM-containing 4.5 g/l glucose, 110 mg/l pyruvate, 4 mg/l nicotinamide, 4 mg/l pyridoxal hydrochloride, 4 mg/l thiamine and 0.4 riboflavin), supplemented with 10% fetal bovine serum (50 ml FCS, Mycoplex PAA Laboratories, Linz). On day 1, 2.7×10^6 cells are placed in 75 ml culture flasks (Falcon, Becton Dickinson, USA). On days 5, 10, 15, 20 and 25, the cells are trypsinized and counted; 2.7×10^6 cells are again spread out. The medium is changed on each day of trypsinization and on the third day after replating. Materials: Riboflavin (vitamin B2), thiamine (vitamin B1), ascorbic acid (vitamin C), uridine and ddC are purchased from Sigma (USA). The concentrations of uridine are given in the following tables; ddC is used in a concentration of 177 nM, which corresponds to the steady-state plasma levels of patients under HAART. A vitamin cocktail consisting of 7.125 mg/l riboflavin, 7.125 mg/l thiamine and 142.5 mg/l vitamin C is used. These pharmacological concentrations exceed the daily requirement by a factor of about one hundred, and meet the safe upper limits according to the recommendations of the European Union for these micro-nutrients. Lactic acid: 1.5 ml of the remainder of the culture is removed in each case immediately before the trypsinization and the L-lactate in it is determined enzymatically with the lactate test-kit from Roche Diagnostics (order No.1822837) in an automatic analysis device (Roche/Hitachi 917) according to the recommendations of the manufacturer.

[4] = test system: HepG2 cell line; assay: Number of HepG2 cells on the day of trypsinization (survival) in the presence of ddC; details: ddC 177 nM; for Number of cells on the day of the trypsinization: HepG2, uridine 200 μM or vitamin cocktail where named
Protocol: as §1, with “micro-nutrients.” for “micro-nutrients. Lactic acid: 1.5 ml of the remainder of the culture is removed in each case immediately before the trypsinization and the L-lactate in it is determined enzymatically with the lactate test-kit from Roche Diagnostics (order No.1822837) in an automatic analysis device (Roche/Hitachi 917) according to the recommendations of the manufacturer.”

Compound	Intracellular lipids / steatotic changes, microscopic image ([1]; Day 20, Oil-Red-O, 177 nM ddC, 200 μM uridine as printed)	Content of mitochondrial DNA, M/N-ratio in % of the control ([2]; Day 0)	Content of mitochondrial DNA, M/N-ratio in % of the control ([2]; Day 5)	Content of mitochondrial DNA, M/N-ratio in % of the control ([2]; Day 10)	Content of mitochondrial DNA, M/N-ratio in % of the control ([2]; Day 15)	Content of mitochondrial DNA, M/N-ratio in % of the control ([2]; Day 20)	Content of mitochondrial DNA, M/N-ratio in % of the control ([2]; Day 25)	Lactate values in the medium in percent of the control ([3]; Day 6)	Lactate values in the medium in percent of the control ([3]; Day 10)	Lactate values in the medium in percent of the control ([3]; Day 15)	Lactate values in the medium in percent of the control ([3]; Day 20)	Lactate values in the medium in percent of the control ([3]; Day 25)	Number of cells on the day of the trypsinization ([4]; Day 5, 2.7×10^6 cells replated every 5 days)	Number of cells on the day of the trypsinization ([4]; Day 10)	Number of cells on the day of the trypsinization ([4]; Day 20)	Number of cells on the day of the trypsinization ([4]; Day 25)	Compensation for the side effects of ddC (overall, see also Tables 1 to 3) ([1]; summary of lipid staining, cell number, mtDNA and lactate)	Reduction of the mtDNA ([2]; HepG2, uridine 200 μM)	Production of lactic acid ([3]; HepG2, uridine 200 μM)	Survival of the HepG2-cells in the presence of ddC ([4]; uridine 200 μM, 25-day incubation)
Nc1ccn([C@H]2CC[C@@H](CO)O2)c(=O)n1 [ddC, dideoxycytidine]	clearly fewer cells are found, which however, are relatively large and red-colored	100.0%	25.6%	25.1%	11.5%	8.3%	8.4%	109.2%	129.5%	220.1%	374.9%	392.5%	110.0 100,000s	98.5 100,000s	66.2 100,000s	38.4 100,000s	–	–	–	–
O=c1ccn([C@@H]2O[C@H](CO)[C@@H](O)[C@H]2O)c(=O)[nH]1 [uridine]	–	–	–	–	–	–	–	–	–	–	–	–	–	–	–	–	can compensate for the side effects of ddC	diminishes the reduction of the mtDNA	diminished by the uridine	normalizes the survival of the HepG2-cells in the presence of ddC
